Measured values: PubChem BioAssay AID1963852 (Molecular Pharmacology Branch, DTP, NCI, 2024)

System: 282377-053-R-J1-PDC complex spheroid viability
Assay: Anticancer human tumor 282377-053-R-J1-PDC patient-derived colon adenocarcinoma cell line growth inhibition [POLQ]
Conditions: for IC50: curve of first compound; for viability, T/C: stronger effect = lower value
Summary of the method: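 Complex spheroid viability model combining PDC tumour cells with endothelial (HUVEC) and MSC stromal cells. Novobiocin, ART-558 or RP6685 were tested singly and in combination with standard and investigational anticancer drugs. Each was titrated in half-log steps from near clinical Cmax, or from 10 microM where Cmax was unknown.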

[1] = second compound 0.0316 µM, first compound 0.0316 µM
[2] = second compound 0.0316 µM, first compound 0.1 µM
[3] = second compound 0.0316 µM, first compound 0.316 µM
[4] = second compound 0.0316 µM, first compound 1 µM
[5] = second compound 0.0316 µM, first compound 3.16 µM
[6] = second compound 0.0316 µM, first compound 10 µM
[7] = second compound 0.1 µM, first compound 0.0316 µM
[8] = second compound 0.1 µM, first compound 0.1 µM
[9] = second compound 0.1 µM, first compound 0.316 µM
[10] = second compound 0.1 µM, first compound 1 µM
[11] = second compound 0.1 µM, first compound 3.16 µM
[12] = second compound 0.1 µM, first compound 10 µM
[13] = second compound 0.316 µM, first compound 0.0316 µM
[14] = second compound 0.316 µM, first compound 0.1 µM
[15] = second compound 0.316 µM, first compound 0.316 µM
[16] = second compound 0.316 µM, first compound 1 µM
[17] = second compound 0.316 µM, first compound 3.16 µM
[18] = second compound 0.316 µM, first compound 10 µM
[19] = second compound 1 µM, first compound 0.0316 µM
[20] = second compound 1 µM, first compound 0.1 µM
[21] = second compound 1 µM, first compound 0.316 µM
[22] = second compound 1 µM, first compound 1 µM
[23] = second compound 1 µM, first compound 3.16 µM
[24] = second compound 1 µM, first compound 10 µM
[25] = second compound 3.16 µM, first compound 0.0316 µM
[26] = second compound 3.16 µM, first compound 0.1 µM
[27] = second compound 3.16 µM, first compound 0.316 µM
[28] = second compound 3.16 µM, first compound 1 µM
[29] = second compound 3.16 µM, first compound 3.16 µM
[30] = second compound 3.16 µM, first compound 10 µM
[31] = second compound 10 µM, first compound 0.0316 µM
[32] = second compound 10 µM, first compound 0.1 µM
[33] = second compound 10 µM, first compound 0.316 µM
[34] = second compound 10 µM, first compound 1 µM
[35] = second compound 10 µM, first compound 3.16 µM
[36] = second compound 10 µM, first compound 10 µM
[37] = second compound 0.0316 µM, first compound 0.00316 µM
[38] = second compound 0.0316 µM, first compound 0.01 µM
[39] = second compound 0.1 µM, first compound 0.00316 µM
[40] = second compound 0.1 µM, first compound 0.01 µM
[41] = second compound 0.316 µM, first compound 0.00316 µM
[42] = second compound 0.316 µM, first compound 0.01 µM
[43] = second compound 1 µM, first compound 0.00316 µM
[44] = second compound 1 µM, first compound 0.01 µM
[45] = second compound 3.16 µM, first compound 0.00316 µM
[46] = second compound 3.16 µM, first compound 0.01 µM
[47] = second compound 10 µM, first compound 0.00316 µM
[48] = second compound 10 µM, first compound 0.01 µM
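Also: spheroids exposed to compounds for seven days.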
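For viability, T/C in this document: 100% = DMSO vehicle control viability.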

SMILES: CCCS(=O)(=O)Nc1ccc(F)c(C(=O)c2c[nH]c3ncc(-c4ccc(Cl)cc4)cc23)c1F + COC1C(OC(N)=O)C(O)C(Oc2ccc3c(O)c(NC(=O)c4ccc(O)c(CC=C(C)C)c4)c(=O)oc3c2C)OC1(C)C
- IC50 (second compound 0.0316 µM): 3550 nM
- IC50 (second compound 0.1 µM): 4030 nM
- IC50 (second compound 0.316 µM): 3460 nM
- IC50 (second compound 1 µM): 3450 nM
- IC50 (second compound 3.16 µM): 3830 nM
- IC50 (second compound 10 µM): 2370 nM
- viability, T/C [1]: 91.9%
- viability, T/C [2]: 77.1%
- viability, T/C [3]: 81.1%
- viability, T/C [4]: 56.5%
- viability, T/C [5]: 59.4%
- viability, T/C [6]: 33.2%
- viability, T/C [7]: 86.6%
- viability, T/C [8]: 76.1%
- viability, T/C [9]: 65.7%
- viability, T/C [10]: 68.4%
- viability, T/C [11]: 60%
- viability, T/C [12]: 29.9%
- viability, T/C [13]: 89.8%
- viability, T/C [14]: 65.5%
- viability, T/C [15]: 63.5%
- viability, T/C [16]: 65.3%
- viability, T/C [17]: 58.4%
- viability, T/C [18]: 32.9%
- viability, T/C [19]: 108%
- viability, T/C [20]: 63.7%
- viability, T/C [21]: 80.9%
- viability, T/C [22]: 58.5%
- viability, T/C [23]: 66.5%
- viability, T/C [24]: 30.6%
- viability, T/C [25]: 93.1%
- viability, T/C [26]: 82%
- viability, T/C [27]: 68.7%
- viability, T/C [28]: 54.9%
- viability, T/C [29]: 68.4%
- viability, T/C [30]: 33.2%
- viability, T/C [31]: 89.1%
- viability, T/C [32]: 73.5%
- viability, T/C [33]: 73.1%
- viability, T/C [34]: 73.3%
- viability, T/C [35]: 42.2%
- viability, T/C [36]: 38%

SMILES: CNCc1ccc(-c2[nH]c3cc(F)cc4c3c2CCNC4=O)cc1 + COC1C(OC(N)=O)C(O)C(Oc2ccc3c(O)c(NC(=O)c4ccc(O)c(CC=C(C)C)c4)c(=O)oc3c2C)OC1(C)C
- IC50 (second compound 0.0316 µM): > 10000 nM
- IC50 (second compound 0.1 µM): > 10000 nM
- IC50 (second compound 0.316 µM): > 10000 nM
- IC50 (second compound 1 µM): > 10000 nM
- IC50 (second compound 3.16 µM): > 10000 nM
- IC50 (second compound 10 µM): > 10000 nM
- viability, T/C [1]: 115%
- viability, T/C [2]: 118%
- viability, T/C [3]: 106%
- viability, T/C [4]: 110%
- viability, T/C [5]: 130%
- viability, T/C [6]: 159%
- viability, T/C [7]: 113%
- viability, T/C [8]: 106%
- viability, T/C [9]: 104%
- viability, T/C [10]: 108%
- viability, T/C [11]: 122%
- viability, T/C [12]: 152%
- viability, T/C [13]: 104%
- viability, T/C [14]: 98.4%
- viability, T/C [15]: 96.6%
- viability, T/C [16]: 100%
- viability, T/C [17]: 133%
- viability, T/C [18]: 157%
- viability, T/C [19]: 102%
- viability, T/C [20]: 99%
- viability, T/C [21]: 121%
- viability, T/C [22]: 103%
- viability, T/C [23]: 128%
- viability, T/C [24]: 160%
- viability, T/C [25]: 98.7%
- viability, T/C [26]: 111%
- viability, T/C [27]: 97.6%
- viability, T/C [28]: 87.4%
- viability, T/C [29]: 121%
- viability, T/C [30]: 167%
- viability, T/C [31]: 107%
- viability, T/C [32]: 122%
- viability, T/C [33]: 110%
- viability, T/C [34]: 106%
- viability, T/C [35]: 127%
- viability, T/C [36]: 162%

SMILES: COc1cccc(OCCCN)c1-c1cc(Nc2cnc(C#N)cn2)n[nH]1 + COC1C(OC(N)=O)C(O)C(Oc2ccc3c(O)c(NC(=O)c4ccc(O)c(CC=C(C)C)c4)c(=O)oc3c2C)OC1(C)C
- IC50 (second compound 0.0316 µM): 124 nM
- IC50 (second compound 0.1 µM): 56.2 nM
- IC50 (second compound 0.316 µM): 92.6 nM
- IC50 (second compound 1 µM): 111 nM
- IC50 (second compound 3.16 µM): 148 nM
- IC50 (second compound 10 µM): 93.6 nM
- viability, T/C [37]: 117%
- viability, T/C [38]: 106%
- viability, T/C [1]: 92.7%
- viability, T/C [2]: 51.4%
- viability, T/C [3]: 37.4%
- viability, T/C [4]: 29.5%
- viability, T/C [39]: 106%
- viability, T/C [40]: 114%
- viability, T/C [7]: 63.9%
- viability, T/C [8]: 46.2%
- viability, T/C [9]: 34.9%
- viability, T/C [10]: 25.6%
- viability, T/C [41]: 118%
- viability, T/C [42]: 83.9%
- viability, T/C [13]: 75.2%
- viability, T/C [14]: 46.4%
- viability, T/C [15]: 31.5%
- viability, T/C [16]: 30.9%
- viability, T/C [43]: 111%
- viability, T/C [44]: 76%
- viability, T/C [19]: 67.9%
- viability, T/C [20]: 60.6%
- viability, T/C [21]: 31%
- viability, T/C [22]: 33.2%
- viability, T/C [45]: 87.9%
- viability, T/C [46]: 84.3%
- viability, T/C [25]: 74.3%
- viability, T/C [26]: 49.3%
- viability, T/C [27]: 46.9%
- viability, T/C [28]: 30.5%
- viability, T/C [47]: 99.8%
- viability, T/C [48]: 81.4%
- viability, T/C [31]: 70.1%
- viability, T/C [32]: 47.4%
- viability, T/C [33]: 34.6%
- viability, T/C [34]: 26.5%

SMILES: Cn1ncnc1[C@H]1c2n[nH]c(=O)c3cc(F)cc(c23)N[C@@H]1c1ccc(F)cc1 + COC1C(OC(N)=O)C(O)C(Oc2ccc3c(O)c(NC(=O)c4ccc(O)c(CC=C(C)C)c4)c(=O)oc3c2C)OC1(C)C
- IC50 (second compound 0.0316 µM): > 100 nM
- IC50 (second compound 0.1 µM): > 100 nM
- IC50 (second compound 0.316 µM): > 100 nM
- IC50 (second compound 1 µM): > 100 nM
- IC50 (second compound 3.16 µM): > 100 nM
- IC50 (second compound 10 µM): > 100 nM
- viability, T/C (second compound 0.0316 µM, first compound 0.000316 µM): 126%
- viability, T/C (second compound 0.0316 µM, first compound 0.001 µM): 108%
- viability, T/C [37]: 101%
- viability, T/C [38]: 98.1%
- viability, T/C [1]: 103%
- viability, T/C [2]: 97.4%
- viability, T/C (second compound 0.1 µM, first compound 0.000316 µM): 106%
- viability, T/C (second compound 0.1 µM, first compound 0.001 µM): 122%
- viability, T/C [39]: 92%
- viability, T/C [40]: 100%
- viability, T/C [7]: 118%
- viability, T/C [8]: 103%
- viability, T/C (second compound 0.316 µM, first compound 0.000316 µM): 97.5%
- viability, T/C (second compound 0.316 µM, first compound 0.001 µM): 81.7%
- viability, T/C [41]: 85.4%
- viability, T/C [42]: 111%
- viability, T/C [13]: 102%
- viability, T/C [14]: 132%
- viability, T/C (second compound 1 µM, first compound 0.000316 µM): 105%
- viability, T/C (second compound 1 µM, first compound 0.001 µM): 111%
- viability, T/C [43]: 111%
- viability, T/C [44]: 90.5%
- viability, T/C [19]: 118%
- viability, T/C [20]: 98.1%
- viability, T/C (second compound 3.16 µM, first compound 0.000316 µM): 88.2%
- viability, T/C (second compound 3.16 µM, first compound 0.001 µM): 106%
- viability, T/C [45]: 92.1%
- viability, T/C [46]: 99.5%
- viability, T/C [25]: 107%
- viability, T/C [26]: 126%
- viability, T/C (second compound 10 µM, first compound 0.000316 µM): 112%
- viability, T/C (second compound 10 µM, first compound 0.001 µM): 98.5%
- viability, T/C [47]: 104%
- viability, T/C [48]: 102%
- viability, T/C [31]: 105%
- viability, T/C [32]: 105%
